Measurements: PubChem BioAssay AID248 (DTP/NCI, 2004)
Several values for one entry are separate records, joined by “and”; a condition that tells them apart may be missing. Identical values can stand only once. Inconclusive results and toxic doses are left out. Rule as the data show it: active = T/C of 150% or more; inactive = T/C below 125%.

Tested on: L1210 leukemia ip in BDF1 mice, survival T/C
Test: NCI In Vivo Anticancer Drug Screen. Data for tumor model L1210 Leukemia (intraperitoneal) in B6D2F1 (BDF1) mice
Conditions: endpoint: mean survival time, higher = longer survival
How it was run: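 In this screen, tumor-bearing mice given compound are compared to those given vehicle, and their survival values are reported as a treated-to-control quotient.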

[1] = dose: 100.0 mg/kg/injection, schedule: Q04DX003 (ip), vehicle: saline
[2] = dose: 200.0 mg/kg/injection, schedule: Q04DX003 (ip), vehicle: saline
[3] = dose: 400.0 mg/kg/injection, schedule: Q04DX003 (ip), vehicle: saline
[4] = dose: 100.0 mg/kg/injection, schedule: Q01DX001 (ip), vehicle: saline
[5] = dose: 200.0 mg/kg/injection, schedule: Q01DX001 (ip), vehicle: saline
[6] = dose: 400.0 mg/kg/injection, schedule: Q01DX001 (ip), vehicle: saline
[7] = dose: 100.0 mg/kg/injection, schedule: Q01DX009 (ip), vehicle: saline with Tween-80
[8] = dose: 200.0 mg/kg/injection, schedule: Q01DX009 (ip), vehicle: saline with Tween-80
[9] = dose: 400.0 mg/kg/injection, schedule: Q01DX009 (ip), vehicle: saline with Tween-80
[10] = dose: 100.0 mg/kg/injection, schedule: Q04DX002 (ip), vehicle: saline
[11] = dose: 100.0 mg/kg/injection, schedule: Q01DX001 (ip), vehicle: saline with Tween-80
[12] = dose: 200.0 mg/kg/injection, schedule: Q04DX002 (ip), vehicle: saline
[13] = dose: 400.0 mg/kg/injection, schedule: Q04DX002 (ip), vehicle: saline
[14] = dose: 50.0 mg/kg/injection, schedule: Q01DX009 (ip), vehicle: saline with Tween-80
[15] = dose: 100.0 mg/kg/injection, schedule: Q01DX009 (ip), vehicle: Klucel (hydroxypropylcellulose) (HPC)
[16] = dose: 200.0 mg/kg/injection, schedule: Q01DX009 (ip), vehicle: Klucel (hydroxypropylcellulose) (HPC)

Measured: T/C

NC1CC[N-]CC1.NC1CC[N-]CC1.[Cl][Pt+2][Cl]
inactive: dose: 50.0 mg/kg/injection, schedule: Q04DX003 (ip), vehicle: saline 108 % of control | dose: 100.0 mg/kg/injection, schedule: Q01DX009 (ip), vehicle: saline 94 % of control | [1] 102 % of control | dose: 200.0 mg/kg/injection, schedule: Q01DX009 (ip), vehicle: saline 100 % of control | [2] 108 % of control | [3] 100 % of control

CC1(C)OC(=O)C2CCCCC21 (centres undefined)
inactive: dose: 25.0 mg/kg/injection, schedule: Q01DX009 (ip), vehicle: saline 89 % of control | dose: 50.0 mg/kg/injection, schedule: Q01DX009 (ip), vehicle: saline 93 % of control | [4] 97 % of control | [5] 90 % of control

CCCCC[C@H](O)/C=C/[C@@H]1[C@@H](C/C=C\CCCC(=O)O)[C@@H](O)C[C@H]1O
inactive: dose: 0.25 mg/kg/injection, schedule: Q#A X020 (ip), vehicle: saline 98 % of control | dose: 0.5 mg/kg/injection, schedule: Q#A X020 (ip), vehicle: saline 96 % of control | dose: 1.0 mg/kg/injection, schedule: Q#A X020 (ip), vehicle: saline 101 % of control | dose: 2.0 mg/kg/injection, schedule: Q#A X020 (ip), vehicle: saline 104 % of control | dose: 5.0 mg/kg/injection, schedule: Q04DX002 (ip), vehicle: saline 96 % of control | dose: 10.0 mg/kg/injection, schedule: Q04DX002 (ip), vehicle: saline 96 % of control | dose: 20.0 mg/kg/injection, schedule: Q04DX002 (ip), vehicle: saline 88 % of control

CN(N=O)C(=O)NCCn1cnc2c(=S)nc[nH]c21
inactive: dose: 6.0 mg/kg/injection, schedule: Q01DX Z (ip), vehicle: carboxymethylcellulose (CMC) 95 % of control | dose: 12.0 mg/kg/injection, schedule: Q01DX Z (ip), vehicle: carboxymethylcellulose (CMC) 92 % of control | dose: 25.0 mg/kg/injection, schedule: Q01DX Z (ip), vehicle: carboxymethylcellulose (CMC) 109 % of control | dose: 50.0 mg/kg/injection, schedule: Q01DX Z (ip), vehicle: carboxymethylcellulose (CMC) 114 % of control | dose: 100.0 mg/kg/injection, schedule: Q01DX Z (ip), vehicle: carboxymethylcellulose (CMC) 104 % of control | dose: 150.0 mg/kg/injection, schedule: Q01DX Z (ip), vehicle: carboxymethylcellulose (CMC) 121 % of control

CCC(=O)N1CCN(C(=O)CC)c2ccccc21
inactive: dose: 50.0 mg/kg/injection, schedule: Q01DX001 (ip), vehicle: saline 98 % of control | [4] 104 % of control | [5] 104 % of control | [6] 101 % of control

C1=C(c2ccccc2)N(CCc2ccccc2)C(c2ccccc2)=CN1Cc1ccccc1
inactive: dose: 100.0 mg/kg/injection, schedule: Q04DX002 (ip), vehicle: Klucel (hydroxypropylcellulose) (HPC) 96 % of control | dose: 200.0 mg/kg/injection, schedule: Q04DX002 (ip), vehicle: Klucel (hydroxypropylcellulose) (HPC) 103 % of control | dose: 400.0 mg/kg/injection, schedule: Q04DX002 (ip), vehicle: Klucel (hydroxypropylcellulose) (HPC) 92 % of control

CCCCCCCC(=O)CCCCC
inactive: [7] 102 % of control | [1] 98 % of control | [8] 109 % of control | [2] 96 % of control | [9] 100 % of control | [3] 93 % of control

CNCCc1ccc(OC)c(OC)c1
inactive: dose: 25.0 mg/kg/injection, schedule: Q04DX002 (ip), vehicle: saline 104 % of control | dose: 50.0 mg/kg/injection, schedule: Q04DX002 (ip), vehicle: saline 107 % of control | [10] 96 % of control

O=C(c1ccccc1)C1CC1(C(=O)c1ccccc1)c1ccccc1 (centres undefined)
inactive: [11] 103 % of control | dose: 200.0 mg/kg/injection, schedule: Q01DX001 (ip), vehicle: saline with Tween-80 103 % of control | dose: 400.0 mg/kg/injection, schedule: Q01DX001 (ip), vehicle: saline with Tween-80 88 % of control

CCCCCOC(=O)C(C)(O)C(Cl)c1ccccc1 (centres undefined)
inactive: [10] 102 % of control and 106 % of control | [12] 98 % of control and 103 % of control | [13] 91 % of control | dose: 600.0 mg/kg/injection, schedule: Q04DX002 (ip), vehicle: saline 117 % of control

BrC(Br)(c1ccccc1)C1OCCO1
inactive: [14] 100 % of control | [7] 106 % of control | [8] 93 % of control

Cc1cnc(C#N)c(-n2ccnc2)n1
inactive: dose: 50.0 mg/kg/injection, schedule: Q01DX009 (ip), vehicle: water 107 % of control | dose: 100.0 mg/kg/injection, schedule: Q01DX009 (ip), vehicle: water 94 % of control | dose: 100.0 mg/kg/injection, schedule: Q04DX003 (ip), vehicle: water 108 % of control | dose: 200.0 mg/kg/injection, schedule: Q01DX009 (ip), vehicle: water 92 % of control | dose: 200.0 mg/kg/injection, schedule: Q04DX003 (ip), vehicle: water 98 % of control

CN(N=O)C(=O)NC1C=CCCC1 (centres undefined)
inactive: dose: 12.5 mg/kg/injection, schedule: Q01DX001 (ip), vehicle: other 104 % of control | dose: 25.0 mg/kg/injection, schedule: Q01DX001 (ip), vehicle: other 95 % of control | dose: 50.0 mg/kg/injection, schedule: Q01DX001 (ip), vehicle: other 97 % of control | dose: 100.0 mg/kg/injection, schedule: Q01DX001 (ip), vehicle: other 96 % of control | dose: 200.0 mg/kg/injection, schedule: Q01DX001 (ip), vehicle: other 104 % of control

Nc1c(N)c2ccccc2c2ccccc12
inactive: dose: 50.0 mg/kg/injection, schedule: Q01DX001 (ip), vehicle: carboxymethylcellulose (CMC) 115 % of control | dose: 100.0 mg/kg/injection, schedule: Q01DX001 (ip), vehicle: carboxymethylcellulose (CMC) 110 % of control | dose: 200.0 mg/kg/injection, schedule: Q01DX001 (ip), vehicle: carboxymethylcellulose (CMC) 117 % of control | dose: 400.0 mg/kg/injection, schedule: Q01DX001 (ip), vehicle: carboxymethylcellulose (CMC) 110 % of control

O=C1OC(=O)C2C1C1C=CC2C12CC2 (centres undefined)
inactive: [14] 97 % of control | [7] 102 % of control | [8] 105 % of control

CC1CCCCC1C(=O)N1CCCCCC1 (centres undefined)
inactive: [10] 108 % of control | [12] 99 % of control | [13] 108 % of control

O=C(Nc1ccc([N+](=O)[O-])cc1)c1cc(N2CCOCC2)ccn1
inactive: [4] 89 % of control and 91 % of control | [5] 94 % of control and 95 % of control | [6] 95 % of control and 91 % of control

CC(C)C(C(=O)O)N1C(=O)C2C3CCC(O3)C2C1=O (centres undefined)
inactive: [1] 98 % of control and 102 % of control | [2] 98 % of control and 89 % of control | [3] 98 % of control and 103 % of control

C[N+](C)(C)C1C2(CCCCC2)NC(=O)C12CCCCC2 (centres undefined)
inactive: dose: 75.0 mg/kg/injection, schedule: Q01DX001 (ip), vehicle: saline 96 % of control

C[N+](C)(C)C1(Cc2ccc(Cl)cc2)c2ccccc2-c2ccccc21
inactive: dose: 12.5 mg/kg/injection, schedule: Q01DX009 (ip), vehicle: Klucel (hydroxypropylcellulose) (HPC) 97 % of control | dose: 12.5 mg/kg/injection, schedule: Q04DX003 (ip), vehicle: Klucel (hydroxypropylcellulose) (HPC) 95 % of control | dose: 25.0 mg/kg/injection, schedule: Q01DX009 (ip), vehicle: Klucel (hydroxypropylcellulose) (HPC) 92 % of control | dose: 25.0 mg/kg/injection, schedule: Q04DX003 (ip), vehicle: Klucel (hydroxypropylcellulose) (HPC) 95 % of control | dose: 50.0 mg/kg/injection, schedule: Q01DX009 (ip), vehicle: Klucel (hydroxypropylcellulose) (HPC) 98 % of control | dose: 50.0 mg/kg/injection, schedule: Q04DX003 (ip), vehicle: Klucel (hydroxypropylcellulose) (HPC) 92 % of control

CC(C)N(C(=O)c1ccccc1Cl)c1ccccc1
inactive: [15] 92 % of control | [16] 103 % of control | dose: 400.0 mg/kg/injection, schedule: Q01DX009 (ip), vehicle: Klucel (hydroxypropylcellulose) (HPC) 103 % of control

CC(C)(O)CNS(=O)(=O)c1ccc(Br)cc1
inactive: [15] 105 % of control | [16] 101 % of control

CCCCCCCCCC(=O)CCCC
inactive: [7] 122 % of control | [1] 94 % of control | [8] 96 % of control | [2] 98 % of control | [9] 104 % of control | [3] 94 % of control

COC(=O)C1=C(O)C(=O)N(c2ccccc2)C1
inactive: [11] 88 % of control
